Measurements as given in ChEMBL document CHEMBL1201862, “PubChem BioAssay data set” (2004).
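All cell lines were grown in 96-well plates and treated with compound for 48 hours. Here, GI50 denotes the concentration required for 50% inhibition of growth.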 Calls of active or inactive are those of the source. Rule as the data show it: active = GI50 up to about 1.1 µM and inactive = higher.

Tests used:
Assay in all cases: NCI tumour cell line growth inhibition, 48 h
MDA-MB-231 = test system: MDA-MB-231
OVCAR-4 = test system: OVCAR-4
HOP-62 = test system: HOP-62
UACC-257 = test system: UACC-257
NCI-H460 = test system: NCI-H460
SK-MEL-28 = test system: SK-MEL-28
CAKI-1 = test system: CAKI-1
M14 = test system: M14
RXF 393 = test system: RXF 393
NCI-H23 = test system: NCI-H23
Hs-578T = test system: Hs-578T
PC-3 = test system: PC-3
TK-10 = test system: TK-10
IGROV-1 = test system: IGROV-1
SNB-75 = test system: SNB-75
NCI/ADR-RES = test system: NCI/ADR-RES
MDA-MB-435 = test system: MDA-MB-435
NCI-H226 = test system: NCI-H226
SF-268 = test system: SF-268
LOX IMVI = test system: LOX IMVI
SN12C = test system: SN12C
A549 = test system: A549
HT-29 = test system: HT-29
CCRF-CEM = test system: CCRF-CEM
HOP-92 = test system: HOP-92
KM12 = test system: KM12
EKVX = test system: EKVX
SNB-19 = test system: SNB-19
A498 = test system: A498
NCI-H522 = test system: NCI-H522
ACHN = test system: ACHN
786-0 = test system: 786-0
BT-549 = test system: BT-549
SF-539 = test system: SF-539
OVCAR-3 = test system: OVCAR-3
SK-MEL-5 = test system: SK-MEL-5
SK-MEL-2 = test system: SK-MEL-2
Malme-3M = test system: Malme-3M
MOLT-4 = test system: MOLT-4
HCT-15 = test system: HCT-15
HL-60 = test system: HL-60
OVCAR-8 = test system: OVCAR-8
MCF7 = test system: MCF7
DU-145 = test system: DU-145
U-251 = test system: U-251
K562 = test system: K562
COLO 205 = test system: COLO 205
T47D = test system: T47D
OVCAR-5 = test system: OVCAR-5
MDA-N = test system: MDA-N
SF-295 = test system: SF-295
UO-31 = test system: UO-31
RPMI-8226 = test system: RPMI-8226
SK-OV-3 = test system: SK-OV-3
SR = test system: SR
HCT-116 = test system: HCT-116
SW-620 = test system: SW-620
UACC-62 = test system: UACC-62
HCC 2998 = test system: HCC 2998

C(=N\c1nc2cc3sc(/N=C/c4cccs4)nc3cc2s1)/c1cccs1
GI50 (MDA-MB-231): > 100 µM (inactive)
GI50 (OVCAR-4): > 100 µM (inactive)
GI50 (HOP-62): > 100 µM (inactive)
GI50 (UACC-257): 70.1 µM (inactive)
GI50 (NCI-H460): 5.36 µM (inactive)
GI50 (SK-MEL-28): > 100 µM (inactive)
GI50 (CAKI-1): > 100 µM (inactive)
GI50 (M14): > 100 µM (inactive)
GI50 (RXF 393): > 100 µM (inactive)
GI50 (NCI-H23): 69.2 µM (inactive)
GI50 (Hs-578T): > 100 µM (inactive)
GI50 (PC-3): > 100 µM (inactive)
GI50 (TK-10): 26.2 µM (inactive)
GI50 (IGROV-1): > 100 µM (inactive)
GI50 (SNB-75): > 100 µM (inactive)
GI50 (NCI/ADR-RES): > 100 µM (inactive)
GI50 (MDA-MB-435): > 100 µM (inactive)
GI50 (NCI-H226): 28.4 µM (inactive)
GI50 (SF-268): > 100 µM (inactive)
GI50 (LOX IMVI): 66.5 µM (inactive)
GI50 (SN12C): 72.9 µM (inactive)
GI50 (A549): 11.5 µM (inactive)
GI50 (HT-29): 44.8 µM (inactive)
GI50 (CCRF-CEM): 11.5 µM (inactive)
GI50 (HOP-92): > 100 µM (inactive)
GI50 (KM12): > 100 µM (inactive)
GI50 (EKVX): 34.4 µM (inactive)
GI50 (SNB-19): > 100 µM (inactive)
GI50 (A498): > 100 µM (inactive)
GI50 (NCI-H522): 45.2 µM (inactive)
GI50 (ACHN): > 100 µM (inactive)
GI50 (786-0): > 100 µM (inactive)
GI50 (BT-549): > 100 µM (inactive)
GI50 (SF-539): > 100 µM (inactive)
GI50 (OVCAR-3): > 100 µM (inactive)
GI50 (SK-MEL-5): 33 µM (inactive)
GI50 (SK-MEL-2): > 100 µM (inactive)
GI50 (Malme-3M): > 100 µM (inactive)
GI50 (MOLT-4): 28.3 µM (inactive)
GI50 (HCT-15): 73.5 µM
GI50 (HL-60): 79.6 µM (inactive)
GI50 (OVCAR-8): > 100 µM (inactive)
GI50 (MCF7): 33.4 µM (inactive)
GI50 (DU-145): > 100 µM (inactive)
GI50 (U-251): > 100 µM (inactive)
GI50 (K562): > 100 µM (inactive)
GI50 (COLO 205): 3.4 µM (inactive)
GI50 (T47D): > 100 µM (inactive)
GI50 (OVCAR-5): > 100 µM (inactive)
GI50 (MDA-N): > 100 µM (inactive)
GI50 (SF-295): > 100 µM (inactive)
GI50 (UO-31): > 100 µM (inactive)
GI50 (RPMI-8226): > 100 µM (inactive)
GI50 (SK-OV-3): > 100 µM (inactive)
GI50 (SR): 26.1 µM (inactive)
GI50 (HCT-116): > 100 µM (inactive)

CC1(C)C2CCC(O)(C2)C1N (centres undefined)
GI50 (MDA-MB-231): > 100 µM (inactive)
GI50 (OVCAR-4): > 100 µM (inactive)
GI50 (HOP-62): > 100 µM (inactive)
GI50 (UACC-257): > 100 µM (inactive)
GI50 (NCI-H460): > 100 µM (inactive)
GI50 (SK-MEL-28): > 100 µM (inactive)
GI50 (CAKI-1): > 100 µM (inactive)
GI50 (M14): > 100 µM (inactive)
GI50 (RXF 393): > 100 µM (inactive)
GI50 (SW-620): > 100 µM (inactive)
GI50 (NCI-H23): > 100 µM (inactive)
GI50 (Hs-578T): > 100 µM (inactive)
GI50 (PC-3): > 100 µM (inactive)
GI50 (TK-10): > 100 µM (inactive)
GI50 (IGROV-1): > 100 µM (inactive)
GI50 (SNB-75): > 100 µM (inactive)
GI50 (NCI/ADR-RES): > 100 µM (inactive)
GI50 (MDA-MB-435): > 100 µM (inactive)
GI50 (NCI-H226): > 100 µM (inactive)
GI50 (SF-268): > 100 µM (inactive)
GI50 (LOX IMVI): > 100 µM (inactive)
GI50 (SN12C): > 100 µM (inactive)
GI50 (A549): > 100 µM (inactive)
GI50 (HT-29): > 100 µM (inactive)
GI50 (CCRF-CEM): > 100 µM (inactive)
GI50 (HOP-92): > 100 µM (inactive)
GI50 (KM12): > 100 µM (inactive)
GI50 (EKVX): > 100 µM (inactive)
GI50 (SNB-19): > 100 µM (inactive)
GI50 (UACC-62): > 100 µM (inactive)
GI50 (ACHN): > 100 µM (inactive)
GI50 (786-0): > 100 µM (inactive)
GI50 (BT-549): > 100 µM (inactive)
GI50 (SF-539): > 100 µM (inactive)
GI50 (OVCAR-3): > 100 µM (inactive)
GI50 (SK-MEL-5): > 100 µM (inactive)
GI50 (SK-MEL-2): > 100 µM (inactive)
GI50 (Malme-3M): > 100 µM (inactive)
GI50 (MOLT-4): > 100 µM (inactive)
GI50 (HCT-15): > 100 µM
GI50 (OVCAR-8): > 100 µM (inactive)
GI50 (MCF7): > 100 µM (inactive)
GI50 (DU-145): > 100 µM (inactive)
GI50 (U-251): > 100 µM (inactive)
GI50 (K562): > 100 µM (inactive)
GI50 (COLO 205): > 100 µM (inactive)
GI50 (T47D): > 100 µM (inactive)
GI50 (OVCAR-5): > 100 µM (inactive)
GI50 (MDA-N): > 100 µM (inactive)
GI50 (HCC 2998): > 100 µM (inactive)
GI50 (SF-295): > 100 µM (inactive)
GI50 (UO-31): > 100 µM (inactive)
GI50 (RPMI-8226): > 100 µM (inactive)
GI50 (SK-OV-3): > 100 µM (inactive)
GI50 (SR): > 100 µM (inactive)
GI50 (HCT-116): > 100 µM (inactive)

Cc1ccc(S(=O)(=O)N2CCCC2C(=O)O[C@H]2CC[C@H]3CC=C[C@H]32)cc1 (some centres undefined)
GI50 (MDA-MB-231): 63.4 µM (inactive)
GI50 (OVCAR-4): > 55.8 µM (inactive)
GI50 (HOP-62): 45.4 µM (inactive)
GI50 (UACC-257): 23.8 µM (inactive)
GI50 (NCI-H460): 27 µM (inactive)
GI50 (SK-MEL-28): 29.9 µM (inactive)
GI50 (CAKI-1): > 100 µM (inactive)
GI50 (M14): 38.7 µM (inactive)
GI50 (SW-620): 31.1 µM (inactive)
GI50 (NCI-H23): 35.6 µM (inactive)
GI50 (Hs-578T): 41.4 µM (inactive)
GI50 (PC-3): 25 µM (inactive)
GI50 (TK-10): > 10 µM (inactive)
GI50 (IGROV-1): 41.3 µM (inactive)
GI50 (SNB-75): > 74.6 µM (inactive)
GI50 (NCI/ADR-RES): 24.5 µM (inactive)
GI50 (MDA-MB-435): 80.2 µM (inactive)
GI50 (NCI-H226): 24.7 µM (inactive)
GI50 (SF-268): > 100 µM (inactive)
GI50 (LOX IMVI): 20.7 µM (inactive)
GI50 (SN12C): 27.8 µM (inactive)
GI50 (A549): 19.4 µM (inactive)
GI50 (HT-29): 40.3 µM (inactive)
GI50 (CCRF-CEM): 13.8 µM (inactive)
GI50 (KM12): > 100 µM (inactive)
GI50 (EKVX): 65.6 µM (inactive)
GI50 (SNB-19): 76.9 µM (inactive)
GI50 (A498): 23.8 µM (inactive)
GI50 (UACC-62): 97.3 µM (inactive)
GI50 (NCI-H522): > 10 µM (inactive)
GI50 (ACHN): 18.7 µM (inactive)
GI50 (786-0): 18.9 µM (inactive)
GI50 (BT-549): 47.4 µM (inactive)
GI50 (SF-539): > 10 µM (inactive)
GI50 (OVCAR-3): > 100 µM (inactive)
GI50 (SK-MEL-5): 19.1 µM (inactive)
GI50 (SK-MEL-2): > 10 µM (inactive)
GI50 (Malme-3M): 47.1 µM (inactive)
GI50 (MOLT-4): 7.89 µM (inactive)
GI50 (HCT-15): > 10 µM
GI50 (HL-60): > 10 µM (inactive)
GI50 (OVCAR-8): 31.8 µM (inactive)
GI50 (MCF7): 26.4 µM (inactive)
GI50 (DU-145): > 10 µM (inactive)
GI50 (U-251): 45.4 µM (inactive)
GI50 (K562): 14.9 µM (inactive)
GI50 (COLO 205): > 10 µM (inactive)
GI50 (T47D): 38.3 µM (inactive)
GI50 (OVCAR-5): > 100 µM (inactive)
GI50 (MDA-N): > 69.8 µM (inactive)
GI50 (HCC 2998): 67.6 µM (inactive)
GI50 (SF-295): 23.7 µM (inactive)
GI50 (UO-31): 29.9 µM (inactive)
GI50 (RPMI-8226): 17.1 µM (inactive)
GI50 (SK-OV-3): 33.7 µM (inactive)
GI50 (SR): 24.9 µM (inactive)
GI50 (HCT-116): 19.1 µM (inactive)
